Several values for one entry are separate records, joined by “and”; a condition that tells them apart may be missing. Equal values may be shown once. Where a SMILES comes first, the peptide text is derived from it. [ ]: non-standard residue; d: D form. Hyp = O=C(O)[C@@H]1C[C@@H](O)CN1
Tested on: CCL3/MIP-1 alpha
Experiment: Example 8 main study Luminex, LPS hPBMCs: CCL3/MIP-1 alpha
Format: cell-based, human
Description: Human PBMCs were pretreated with YY-101, YDE-011, YDE-043 or reference compound; Xiidra® at various concentration (ranging from […] to 500 nM) for 2 h before stimulation. An equal volume of 0.5% DMSO was used as a vehicle control. Then, the cells were treated with LPS at 5 ug/ml, which was selected based on the pilot study. The supernatants from treated cells were harvested at 24 h and placed in a 96 well for Luminex cytokine & chemokine profiling using a Luminex 200 multiplex assay (Luminex; R&D system, USA).
The main study arm with triplicate wells per group in a 24-well plate: • 1. Blank • 2. PBMC: 0.5% DMSO • 3. PBMC+LPS (5 ug/ml) • 4. PBMC+YY-101 500 nM • 5. PBMC+YY-101 50 nM • 6. PBMC+YY-101 5 nM • 7. PBMC+YY-101 0.5 nM • 8. PBMC+LPS (5 ug/ml)+Xiidra® 500 nM • 9. PBMC+LPS (5 ug/ml)+Xiidra® 50 nM • 10. PBMC+LPS (5 ug/ml)+Xiidra® 5 nM • 11. PBMC+LPS (5 ug/ml)+Xiidra® 0.5 nM • 12. PBMC+LPS (5 ug/ml)+Xiidra® 0.05 nM • 13. PBMC+LPS (5 ug/ml)+Xiidra® 0.005 nM • 14. PBMC+LPS (5 ug/ml)+YY-101 500 nM • 15. PBMC+LPS (5 ug/ml)+YY-101 50 nM • 16. PBMC+LPS (5 ug/ml)+YY-101 5 nM • 17. PBMC+LPS (5 ug/ml)+YY-101 0.5 nM • 18. PBMC+LPS (5 ug/ml)+YY-101 0.05 nM • 19. PBMC+LPS (5 ug/ml)+YY-101 0.005 nM • 20. PBMC+LPS (5 ug/ml)+YDE-011 500 nM • 21. PBMC+LPS (5 ug/ml)+YDE-011 50 nM • 22. PBMC+LPS (5 ug/ml)+YDE-011 5 nM • 23. PBMC+LPS (5 ug/ml)+YDE-011 0.5 nM • 24. PBMC+LPS (5 ug/ml)+YDE-011 0.05 nM • 25. PBMC+LPS (5 ug/ml)+YDE-011 0.005 nM • 26. PBMC+LPS (5 ug/ml)+YDE-043 500 nM • 27. PBMC+LPS (5 ug/ml)+YDE-043 50 nM • 28. PBMC+LPS (5 ug/ml)+YDE-043 5 nM • 29. PBMC+LPS (5 ug/ml)+YDE-043 0.5 nM • 30. PBMC+LPS (5 ug/ml)+YDE-043 0.05 nM • 31. PBMC+LPS (5 ug/ml)+YDE-043 0.005 nM
Multiplex assay was used to measure 30 cytokines and chemokines. The 1:200 diluted cell supernatant and serial dilution of the standard were dispensed into a 96 well plate at 50 ul/well. Then, the pre-mixed cocktail of antibody-coated magnetic beads was dispensed at 50 ul/well and incubated at room temperature for 2 h in a horizontal orbital microplate shaker at 800±500 rpm. The beads were washed using a magnetic device to prevent loss. The biotin-antibody was dispensed in 50 ul of each well and incubated at room temperature for 1 h in a shaker at 800±500 rpm. After washing, streptavidin-PE was added at 50 ul/well and incubated at room temperature for 30 min in a shaker under the same conditions. Finally, after washing, wash buffer (100 ul/well) was added to the plate and incubated in a shaker for 2 min. The Luminex™ 200 setting were set according to the manufacturer's protocol. The data was calculated with a standard five-parameter logistic nonlinear regression analysis of the data (xPonent software 4.2, USA). Results were presented as concentration (ng/ml or pg/ml).

[1] = PBMC + LPS(5 ug/ml) + test article 0.005 nM, Mean
[2] = PBMC + LPS(5 ug/ml) + test article 0.005 nM, single replicates
[3] = PBMC + LPS(5 ug/ml) + test article 0.05 nM, Mean
[4] = PBMC + LPS(5 ug/ml) + test article 0.05 nM, single replicates
[5] = PBMC + LPS(5 ug/ml) + test article 0.5 nM, Mean
[6] = PBMC + LPS(5 ug/ml) + test article 0.5 nM, single replicates
[7] = PBMC + LPS(5 ug/ml) + test article 5 nM, Mean
[8] = PBMC + LPS(5 ug/ml) + test article 5 nM, single replicates
[9] = PBMC + LPS(5 ug/ml) + test article 50 nM, Mean
[10] = PBMC + LPS(5 ug/ml) + test article 50 nM, single replicates
[11] = PBMC + LPS(5 ug/ml) + test article 500 nM, Mean
[12] = PBMC + LPS(5 ug/ml) + test article 500 nM, single replicates
[13] = PBMC + test article 0.5 nM, no LPS, Mean
[14] = PBMC + test article 0.5 nM, no LPS, single replicates
[15] = PBMC + test article 5 nM, no LPS, Mean
[16] = PBMC + test article 5 nM, no LPS, single replicates
[17] = PBMC + test article 0.05 uM, no LPS, Mean
[18] = PBMC + test article 0.05 uM, no LPS, single replicates
[19] = PBMC + test article 50 nM, no LPS, Mean
[20] = PBMC + test article 50 nM, no LPS, single replicates
[21] = PBMC + test article 500 nM, no LPS, Mean
[22] = PBMC + test article 500 nM, no LPS, single replicates

Structure (SMILES): CC(C)C[C@H](NC(=O)CNC(=O)[C@H](CC(=O)O)NC(=O)[C@H](CCC(N)=O)NC(=O)CNC(=O)[C@@H]1C[C@@H](O)CN1)C(=O)N[C@@H](C)C(=O)NCC(=O)N1CCC[C@H]1C(=O)N[C@@H](CCCCN)C(=O)O [YY-101] (H-[Hyp]GQDGLAGPK-OH; N-terminus and C-terminus assumed)
- CCL3/MIP-1 alpha Concentration [1]: 33793.5 pg/mL
- CCL3/MIP-1 alpha MFI [1]: 46.8
- CCL3/MIP-1 alpha Concentration [2]: 35134.4 pg/mL and 33380.1 pg/mL and 32865.8 pg/mL
- CCL3/MIP-1 alpha MFI [2]: 49.5 and 46.0 and 45.0
- CCL3/MIP-1 alpha Concentration [3]: 36420.8 pg/mL
- CCL3/MIP-1 alpha MFI [3]: 52.2
- CCL3/MIP-1 alpha Concentration [4]: 35866.0 pg/ml (2×) and 37530.4 pg/ml
- CCL3/MIP-1 alpha MFI [4]: 51.0 (2×) and 54.5
- CCL3/MIP-1 alpha Concentration [5]: 34955.7 pg/mL
- CCL3/MIP-1 alpha MFI [5]: 49.2
- CCL3/MIP-1 alpha Concentration [6]: 36107.4 pg/mL and 33380.1 pg/mL and 35379.6 pg/mL
- CCL3/MIP-1 alpha MFI [6]: 51.5 and 46.0 and 50.0
- CCL3/MIP-1 alpha Concentration [7]: 34545.7 pg/mL
- CCL3/MIP-1 alpha MFI [7]: 48.3
- CCL3/MIP-1 alpha Concentration [8]: 33380.1 pg/mL and 35866.0 pg/mL and 34390.9 pg/mL
- CCL3/MIP-1 alpha MFI [8]: 46.0 and 51.0 and 48.0
- CCL3/MIP-1 alpha Concentration [9]: 33677.2 pg/mL
- CCL3/MIP-1 alpha MFI [9]: 46.7
- CCL3/MIP-1 alpha Concentration [10]: 31818.4 pg/mL and 36347.5 pg/mL and 32865.8 pg/mL
- CCL3/MIP-1 alpha MFI [10]: 43.0 and 52.0 and 45.0
- CCL3/MIP-1 alpha Concentration [11]: 33967.7 pg/mL
- CCL3/MIP-1 alpha MFI [11]: 47.2
- CCL3/MIP-1 alpha Concentration [12]: 33635.0 pg/mL and 34887.9 pg/mL and 33380.1 pg/mL
- CCL3/MIP-1 alpha MFI [12]: 46.5 and 49.0 and 46.0
- CCL3/MIP-1 alpha Concentration [13]: 16345.0 pg/mL
- CCL3/MIP-1 alpha MFI [13]: 19.5
- CCL3/MIP-1 alpha Concentration [14]: 15903.7 pg/mL and 16786.4 pg/mL
- CCL3/MIP-1 alpha MFI [14]: 19.0 and 20.0
- CCL3/MIP-1 alpha Concentration [15]: 14259.0 pg/mL
- CCL3/MIP-1 alpha MFI [15]: 17.3
- CCL3/MIP-1 alpha Concentration [16]: 14014.0 pg/mL and 14504.0 pg/mL
- CCL3/MIP-1 alpha MFI [16]: 17.0 and 17.5
- CCL3/MIP-1 alpha Concentration [17]: 13904.3 pg/mL
- CCL3/MIP-1 alpha MFI [17]: 17.0
- CCL3/MIP-1 alpha Concentration [18]: 15903.7 pg/mL and 11904.9 pg/mL
- CCL3/MIP-1 alpha MFI [18]: 19.0 and 15.0
- CCL3/MIP-1 alpha Concentration [19]: 14246.1 pg/mL
- CCL3/MIP-1 alpha MFI [19]: 17.3
- CCL3/MIP-1 alpha Concentration [20]: 13510.6 pg/mL and 14981.7 pg/mL
- CCL3/MIP-1 alpha MFI [20]: 16.5 and 18.0
- CCL3/MIP-1 alpha Concentration [21]: 14014.0 pg/mL
- CCL3/MIP-1 alpha MFI [21]: 17.0
- CCL3/MIP-1 alpha Concentration [22]: 14014.0 pg/mL
- CCL3/MIP-1 alpha MFI [22]: 17.0

Reference: patent US20230146455A1, “TREATMENT OF INFLAMMATORY DISEASES WITH PEPTIDES AND PHARMACEUTICAL COMPOSITIONS” (Yuyu Pharma, Inc., priority 2020, published 2023)
